Measured values from patent publication US20240132484A1, “BROAD SPECTRUM ANTIVIRAL COMPOUNDS TARGETING THE SKI COMPLEX” (priority 2020, published 2024).
“And” between values parts separate entries of the source, which are not always exact repeats. Equal values may be shown once. Read-outs that look alike come from different tables or passages of the source.

Tests used:
SARS2 = assay type: cell-based, SARS-CoV-2; conditions: for Percentage Inhibition Average 1 μM / Screening data (Relative infection to DMSO controls) Average 1 μM: SARS2, 1 μM; for Screening data (Relative infection to DMSO controls) Average 1 μM / Screening data (Relative infection to DMSO controls) Average 5 μM / Screening data (Relative infection to DMSO controls) Average 10 μM / Screening data (Relative infection to DMSO controls) Average 25 μM / Screening data (Relative infection to DMSO controls) Average 50 μM / Average (relative infection to DMSO over the 5 tested concentrations): 100=DMSO control; for Percentage Inhibition Average 5 μM / Screening data (Relative infection to DMSO controls) Average 5 μM: SARS2, 5 μM; for Percentage Inhibition Average 10 μM / Screening data (Relative infection to DMSO controls) Average 10 μM: SARS2, 10 μM; for Percentage Inhibition Average 25 μM / Screening data (Relative infection to DMSO controls) Average 25 μM: SARS2, 25 μM; for Percentage Inhibition Average 50 μM / Screening data (Relative infection to DMSO controls) Average 50 μM: SARS2, 50 μM; for Average (relative infection to DMSO over the 5 tested concentrations): SARS2, average over 1 to 50 uM
cells (nuclei count) = conditions: for Relative cell count to DMSO controls, Average 1 μM / Relative cell count to DMSO controls, Average 5 μM / Relative cell count to DMSO controls, Average 10 μM / Relative cell count to DMSO controls, Average 25 μM / Relative cell count to DMSO controls, Average 50 μM: toxicity data, 100=DMSO control; for Relative cell count to DMSO controls, Average (for correlation analysis): average value over the 5 tested concentrations (1 to 50 uM)

Structure (SMILES)	Percentage Inhibition Average 1 μM (SARS2)	Screening data (Relative infection to DMSO controls) Average 1 μM (SARS2)	Percentage Inhibition Average 5 μM (SARS2)	Screening data (Relative infection to DMSO controls) Average 5 μM (SARS2)	Percentage Inhibition Average 10 μM (SARS2)	Screening data (Relative infection to DMSO controls) Average 10 μM (SARS2)	Percentage Inhibition Average 25 μM (SARS2)	Screening data (Relative infection to DMSO controls) Average 25 μM (SARS2)	Percentage Inhibition Average 50 μM (SARS2)	Screening data (Relative infection to DMSO controls) Average 50 μM (SARS2)	Average (relative infection to DMSO over the 5 tested concentrations) (SARS2)	Relative cell count to DMSO controls, Average 1 μM (cells (nuclei count))	Relative cell count to DMSO controls, Average 5 μM (cells (nuclei count))	Relative cell count to DMSO controls, Average 10 μM (cells (nuclei count))	Relative cell count to DMSO controls, Average 25 μM (cells (nuclei count))	Relative cell count to DMSO controls, Average 50 μM (cells (nuclei count))	Toxicity Data, Average, Mean (relative to DMSO control) (cells (nuclei count); Average of Exp 1-3, 1 uM)	Toxicity Data, Average, Mean (relative to DMSO control) (cells (nuclei count); Average of Exp 1-3, 5 uM)	Toxicity Data, Average, Mean (relative to DMSO control) (cells (nuclei count); Average of Exp 1-3, 10 uM)	Toxicity Data, Average, Mean (relative to DMSO control) (cells (nuclei count); Average of Exp 1-3, 25 uM)	also measured
Cc1ccc(CN(CCN(C)C)Cc2ccc(C)s2)o1 [SILCS7]	6.07%	93.93	7.19%	92.81	42.29%	57.71	58.04%	41.96	68.91%	31.09	63.50	110.82	103.66	106.58	103.49	73.73	110.82%	103.66%	106.58%	103.49%	Toxicity Data, Average, Mean (relative to DMSO control) (cells (nuclei count); Average of Exp 1-3, 50 uM): 73.73%; Relative cell count to DMSO controls, Average (for correlation analysis) (cells (nuclei count)): 99.66
CN(C)CCN(Cc1ccsc1)Cc1ccc(CO)o1 [SILCS9]	−13.21%	113.21	−20.66%	120.66	−20.58%	120.58	−11.45%	111.45	4.02%	95.98	112.38	105.37	103.56	111.19	92.21	60.67	105.37%	103.56%	111.19%	92.21%	Percentage Infection Relative to DMSO Control, Average, Mean (SARS2): 95.98% and 111.45% and 120.58% and 120.66% and 113.21%; SARS2 antiviral activity (SARS2): significant loss of activity; Toxicity Data, Average, Mean (relative to DMSO control) (cells (nuclei count); Average of Exp 1-3, 50 uM): 60.67%; Relative cell count to DMSO controls, Average (for correlation analysis) (cells (nuclei count)): 94.60
